From patent publication US10111885B2, “Compositions and therapeutic methods for the treatment of complement-associated diseases” (Resverlogix Corp., priority 2015, dated 2018)
Like-named read-outs stand apart in the source and are kept apart here.

Assays:
[1] = tested on: C3 mRNA; assay: Complement gene mRNA expression, TaqMan real-time PCR, HepG2 cells; format: cell-based, human; settings: for IC50: Homo sapiens
Description: (§1) In this example, mRNA levels from cultured cells were quantitated. The assay can be used to determine the effect of compound(s) on regulating mRNA levels, including those compounds in the present invention. Complement genes are expressed at high endogenous levels, but their expression can also be stimulated with various cytokines in inflammatory conditions. Experiments in this example target both basal and inflammatory complement gene expression. Compound mediated changes in gene expression and resulting mRNA levels are presented in Tables 2, 3 and 4 as well as FIGS. 1, 2, 3 and 4 below.
(§2) Huh-7 and HepG2 cells are liver-derived cell lines and are models for what can occur in the liver. Huh-7 cells (JCRB Cell Bank) were introduced to 96-well plates (^˜2.5×10^5 per well) in 100 μL DMEM containing 10% (v/v) FBS, 100 U/mL penicillin, 100 ug/mL streptomycin and 5 ug/mL plasmocin (all reagents from Gibco, except for the former, which was obtained from Invivogen). After 24 h, Huh-7 cells were treated with compounds in the same media formulation used for plating, and supplemented with 0.1% DMSO for the amount of time indicated in tables 2, 3, and 4. For select experiments, 24 h post-plating, cells were treated with cytokines and the compound of interest simultaneously, for a total treatment time of 48 h. Alternatively, 24 h after plating, cells were pre-treated with cytokines for 24 h before adding the compound of interest for 48 h. HepG2 cells (ATCC) were cultured in 96-well plates (^˜2.5×10^5 per well) in MEM containing 10% FBS, 1× non-essential amino acids, 1 mM sodium pyruvate, 2 mM L-glutamine, 100 U/mL penicillin, 100 ug/mL streptomycin and 5 ug/mL plasmocin. Serum amount was reduced to 0.5% for treatments with compound or cytokines. Timing of treatment of HepG2 cells with compounds and cytokines was as described for Huh-7 cells. Primary human hepatocytes (CellzDirect/Life Technologies) were plated in collagen coated 96-well plates at 70 000 cells/well, then overlaid with Matrigel™ as recommended by the supplier. Cells were treated with compounds of interest and/or cytokines for the indicated time points in the recommended media supplemented with 0.1% DMSO and 10% FBS (v/v). Cells were harvested by mRNA Catcher PLUS Kit (Life Technologies) followed by real-time PCR using the RNA UltraSense One-Step qRT-PCR System. The level of the mRNA of interest was measured by TaqMan real-time PCR relative to the endogenous control cyclophilin A in the same sample. Data were acquired using the ViiA-7 Real Time PCR System (Applied Biosystems).
(§3) Downregulation of expression of components of the complement cascade will result in reduced activity of the pathway and thus will constitute a positive result. Tables 2 and 3 list the concentration of compounds at which the level of the indicated mRNA is reduced by 50%, as well as the duration of treatment with compound. Table 4 lists the maximum reduction in the indicated mRNA measured in primary human hepatocytes treated with compounds for up to 72 hours. FIGS. 1, 2, 3 and 4 show effects of compounds on cytokine-induced (i.e. inflammatory) expression of complement genes in Huh-7 cells and HepG2 cells.

[2] = tested on: C4a/C4b mRNA; assay: as above; format: cell-based, human; settings: for IC50: Homo sapiens, HepG2, 72 h, read-out: C4a/C4b (72 h) mRNA, half maximal inhibitory concentration (IC50)
Description: as §1, §2, §3

[3] = tested on: C5 mRNA; assay: as above; format: cell-based, human; settings: for IC50: Homo sapiens, HepG2, 72 h, read-out: C5 (72 h) mRNA, half maximal inhibitory concentration (IC50)
Description: as §1, §2, §3

[4] = tested on: C1S mRNA; assay: as above; format: cell-based; settings: Homo sapiens; HepG2, 48 h treatment; read-out: C1S (48 h) mRNA, half maximal inhibitory concentration (IC50)
Description: as §1
as §2, with “Data were acquired using the ViiA-7 Real Time PCR System (Applied Biosystems).” left out
(§4) Downregulation of expression of components of the complement cascade will result in reduced activity of the pathway and thus will constitute a positive result. […] Table 4 lists the maximum reduction in the indicated mRNA measured in primary human hepatocytes treated with compounds for up to 72 hours. […]

[5] = tested on: MBL2 mRNA; assay: as above; format: cell-based; settings: Homo sapiens; HepG2, 48 h treatment; read-out: MBL2 (48 h) mRNA, half maximal inhibitory concentration (IC50)
Description: as §1
as §2, with “Data were acquired using the ViiA-7 Real Time PCR System (Applied Biosystems).” left out
as §4

[6] = tested on: complement C3 protein; assay: Secreted complement protein ELISA, Huh-7 cells; format: cell-based, human; settings: for C3 secretion, percent maximum reduction in protein levels: Huh-7, 72 h, ± standard deviation
Description: (§5) In this example, protein secretion from cells grown in culture in the presence of compound of interest was analyzed by enzyme linked immunosorbent assay (ELISA). In some cases, cultured cells were treated with cytokines and the compound of interest to mimic an inflammatory state. The method can be used to determine the effect of compounds, including those in the present invention, on the secretion of specific proteins from cells grown in culture under basal and cytokine stimulated (i.e. inflammatory) conditions (Table 7, FIGS. 5 and 6).
(§6) Huh-7 cells (JCRB Cell Bank) were introduced to 24-well plates in 500 μL DMEM supplemented with 10% (v/v) FBS, 100 U/mL penicillin, 100 ug/mL streptomycin and 5 ug/mL plasmocin (all reagents from Gibco, except for the former, which comes from Invivogen) at 200 000 cells/well. After 24 h, cells were treated with the compound of interest and/or cytokines in DMEM with 10% FBS containing 0.1% DMSO for a total treatment time of 72 h. Fresh media containing compounds and/or cytokines was introduced in the final 24 h of the experiment. At harvest, media were collected, debris was removed by brief centrifugation, and ELISA assays for the indicated proteins were performed as per the manufacturer's protocol. To correct for differences in cell numbers, values obtained for complement proteins were normalized to values for transferrin. HepG2 cells (ATCC) were cultured in MEM containing 10% FBS, 1× non-essential amino acids, 1 mM sodium pyruvate, 2 mM L-glutamine, 100 U/mL penicillin, 100 ug/mL streptomycin and 5 ug/mL plasmocin. Serum amount was reduced to 0.5% when compounds were present. Treatment combinations and timing were as described above for Huh-7 cells. Primary human hepatocytes (CellzDirect/Life Technologies) were plated in collagen coated 96-well plates at 70 000 cells/well, then overlaid with Matrigel™ as recommended by the supplier. Cells were treated with compounds of interest with or without the indicated cytokines for a total of 72 h in the recommended media supplemented with 10% FBS and 0.1% DMSO (v/v). Media were collected for measurements of secreted proteins.
(§7) The ELISA kits for detection of complement C3, C4, C5 and C9 were obtained from AssayPro (St. Charles, Mo.), while the ELISA reagents for transferrin detection were from Bethyl Laboratories (Montgomery, Tex.). Data were collected on a Thermo Scientific Multiskan GO apparatus. Downregulation of expression of components of the complement cascade will result in reduced activity of the pathway and thus will constitute a positive result.

[7] = tested on: complement C4 protein; assay: Secreted complement protein ELISA, Huh-7 cells; format: cell-based, human; settings: for C4 secretion, percent maximum reduction in protein levels: Huh-7, 72 h, ± standard deviation
Description: as §5, §6, §7

[8] = tested on: complement C5 protein; assay: Secreted complement protein ELISA, Huh-7 cells; format: cell-based, human; settings: for C5 secretion, percent maximum reduction in protein levels: Huh-7, 72 h, ± standard deviation
Description: as §5, §6, §7

[9] = HepG2, 72 h, read-out: C3 (72 h) mRNA, half maximal inhibitory concentration (IC50)
[10] = HepG2 pre-treated with cytokines
[11] = HepG2 treated simultaneously with cytokines
[12] = 30 uM, Huh-7 treated simultaneously with IL-6

Cc1sc2c(c1C)C(c1ccc(Cl)cc1)=N[C@@H](CC(=O)OC(C)(C)C)c1nnc(C)n1-2 [JQ1, (S)-tert-butyl 2-(4-(4-chlorophenyl)-2,3,9-trimethyl-6H-thieno[3,2-f][1,2,4]triazolo[4,3-a][1,4]diazepin-6-yl)acetate, reference compound]
IC50 ([1]; HepG2, 48 h, read-out: C3 (48 h) mRNA, half maximal inhibitory concentration (IC50)): 200 nM | IC50 [1, 9]: 490 nM | IC50 [2]: 250 nM | IC50 [3]: 460 nM | IC50 [4]: 120 nM | IC50 [5]: 30 nM | C3 secretion, percent maximum reduction in protein levels ([6]; 0.75 uM): 99 ± 1% | C4 secretion, percent maximum reduction in protein levels ([7]; 0.75 uM): 81 ± 6% | C5 secretion, percent maximum reduction in protein levels ([8]; 0.75 uM): 50 ± 13%

COc1cc(OC)c2c(=O)[nH]c(-c3cc(C)c(OCCO)c(C)c3)nc2c1 [RVX000222, 2-(4-(2-hydroxyethoxy)-3,5-dimethylphenyl)-5,7-dimethoxyquinazolin-4(3H)-one]
expression of complement component 3 at the mRNA level (FIG. 4) [1, 10]: reduces expression | expression of complement component 3 at the mRNA level (FIG. 2) [1, 11]: reduces expression | IC50 [1, 9]: 25000 nM | expression of complement component 4 at the mRNA level (FIG. 4) [2, 10]: reduces expression | expression of complement component 4 at the mRNA level (FIG. 2) [2, 11]: reduces expression | IC50 [2]: 10000 nM | expression of complement component 5 at the mRNA level (FIG. 4) [3, 10]: reduces expression | expression of complement component 5 at the mRNA level (FIG. 2) [3, 11]: reduces expression | IC50 [3]: 20000 nM | IC50 [4]: 9560 nM | IC50 [5]: 3880 nM | C3 secretion, percent maximum reduction in protein levels ([6]; 30 uM): 87 ± 9% | secretion of C3 protein (FIG. 5) [6, 12]: reduces secretion | C4 secretion, percent maximum reduction in protein levels ([7]; 30 uM): 79 ± 3% | secretion of C4 protein (FIG. 5) [7, 12]: reduces secretion | C5 secretion, percent maximum reduction in protein levels ([8]; 30 uM): 53 ± 7% | secretion of C5 protein (FIG. 5) [8, 12]: reduces secretion
